Results from ChEMBL document CHEMBL4831515 (J Med Chem, 2021).

How the values were obtained:
[1] = test system: Human immunodeficiency virus 1; assay: Antiviral activity against HIV1 3B infected in human MT4 cells assessed as reduction in virus-induced cytopathogenic effect by MTT assay; settings: Human immunodeficiency virus 1, 3B
[2] = test system: Human immunodeficiency virus 2; assay: Antiviral activity against wild type HIV2 ROD infected in human MT4 cells assessed as reduction in virus-induced cytopathogenic effect by MTT assay; settings: Human immunodeficiency virus 2, ROD
[3] = target: Human immunodeficiency virus type 1 reverse transcriptase (Human immunodeficiency virus 1, UniProt Q72547); assay: Inhibition of wild type HIV1 reverse transcriptase assessed as reduction in biotin-dUTP incorporation into […] incubated for 1 hrs by ELISA
[4] = Selectivity ratio of CC50 for human MT4 cells to IC50 for HIV1 RES056 infected in MT4 cells
[5] = test system: Human immunodeficiency virus 1; assay: Antiviral activity against HIV1 RES056 infected in human MT4 cells assessed as reduction in virus-induced cytopathogenic effect by MTT assay; settings: Human immunodeficiency virus 1, RES056, MT4
[6] = Cytotoxicity against human MT4 cells assessed as reduction in cell viability by MTT assay
[7] = in vitro; settings: human, MT4 cells
Description: Selectivity index, ratio of CC50 for human MT4 cells to EC50 for HIV1 harboring E138K mutant infected in human MT4 cells

[8] = test system: Human immunodeficiency virus 1; assay: Antiviral activity against wild type HIV1 harboring Y188L mutant infected in human MT4 cells assessed as reduction in virus-induced cytopathogenic effect by MTT assay; settings: Human immunodeficiency virus 1, MT4
[9] = test system: Human immunodeficiency virus 1; assay: Antiviral activity against wild type HIV1 harboring Y181C mutant infected in human MT4 cells assessed as reduction in virus-induced cytopathogenic effect by MTT assay; settings: Human immunodeficiency virus 1, MT4
[10] = test system: Human immunodeficiency virus 1; assay: Antiviral activity against HIV1 harboring F227L/V106A mutant infected in human MT4 cells assessed as reduction in virus-induced cytopathogenic effect by MTT assay; format: functional, organism-based; settings: Human immunodeficiency virus 1, MT4
[11] = test system: Human immunodeficiency virus 1; assay: Antiviral activity against HIV1 harboring K103N mutant infected in human MT4 cells assessed as reduction in virus-induced cytopathogenic effect by MTT assay; format: functional, organism-based; settings: Human immunodeficiency virus 1, MT4
[12] = test system: Human immunodeficiency virus 1; settings: Human immunodeficiency virus 1, MT4
[13] = test system: Human immunodeficiency virus 1; assay: Antiviral activity against HIV1 harboring L100I mutant infected in human MT4 cells assessed as reduction in virus-induced cytopathogenic effect by MTT assay; settings: Human immunodeficiency virus 1, MT4

SMILES	EC50 [1] [nM]	EC50 [2] [nM]	IC50 [3] [nM]	selectivity ratio [4]	EC50 [5] [nM]	CC50 [6] [nM]	selectivity ratio [7]	EC50 [8] [nM]	EC50 [9] [nM]	EC50 [10] [nM]	EC50 [11] [nM]	EC50 [12] [nM]	EC50 [13] [nM]
Cc1cc(C#N)cc(C)c1Oc1nc(Nc2ccc(C#N)cc2F)nc2c1CSCC2	45.5	> 290000	65	> 1	> 290000	> 290000							
Cc1cc(/C=C/C#N)cc(C)c1Oc1nc(NC2CCN(Cc3ccc(C(N)=O)cc3)CC2)nc2c1CSCC2	15.5	> 18500	179	495	37.3	18500	615	35.2	31.1	20	12.5	30	8.65
Cc1cc(C#N)cc(C)c1Oc1nc(NC2CCN(Cc3ccc(C(N)=O)cc3)CC2)nc2c1CSCC2	9.98	> 236000	143	> 1690	140	> 236000	> 7180	22.8	21.4	853	8.8	32.9	22.3
Cc1cc(/C=C/C#N)cc(C)c1Oc1nc(Nc2ccc(C#N)nc2)nc2c1CSCC2	12.1	> 109000	32	1340	81.6	109000	8520	59.6	13.3	148	4.09	12.8	9.08
Cc1cc(C#N)cc(C)c1Oc1nc(Nc2ccc(C#N)cn2)nc2c1CSCC2	68.7	> 302000	53	> 1	256000	> 302000							
Cc1cc(/C=C/C#N)cc(C)c1Oc1nc(Nc2ccc(C#N)cc2F)nc2c1CSCC2	31	> 273000	51	> 47	5810	> 273000							
Cc1cc(C#N)cc(C)c1Oc1nc(NC2CCN(Cc3ccc(S(N)(=O)=O)cc3)CC2)nc2c1CSCC2	13.7	> 221000	151	> 1850	120	> 221000	> 13900	12.6	7.44	15.1	7.17	15.9	7.88
Cc1cc(C#N)cc(C)c1Oc1nc(NC2CCN(Cc3ccc([N+](=O)[O-])cc3)CC2)nc2c1CSCC2	11.5	> 236000	230	> 83	2850	> 236000							
Cc1cc(C#N)cc(C)c1Oc1nc(NC2CCN(Cc3ccc(S(C)(=O)=O)cc3)CC2)nc2c1CSCC2	11.1	5640	134	465	125	58000	3100	18.4	20.8	17.1	6.65	18.7	11.6
Cc1cc(/C=C/C#N)cc(C)c1Oc1nc(Nc2ccc(C#N)c(F)c2)nc2c1CSCC2	15.8	> 54400	8	408	133	54400	1320	54.3	32.7	74.3	15.8	41.2	8.41
Cc1ccnc2c1NC(=O)c1cccnc1N2C1CC1 [NEVIRAPINE]		> 15000			> 15000	> 15000		> 15000	> 15000	> 15000	12300	182	2220
Cc1cc(/C=C/C#N)cc(C)c1Oc1nc(NC2CCN(Cc3cc(=O)[nH]c(=O)[nH]3)CC2)nc2c1CSCC2	30.8	> 23200	171	26	881	23200							
Cc1cc(C#N)cc(C)c1Oc1nc(Nc2ccc(C#N)cc2)nc2c1CSCC2	5.64	> 202000	41	1360	148	202000	21400	24.3	27.6	27.1	< 3.87	9.43	9.31
Cc1cc(C#N)cc(C)c1Oc1nc(Nc2ccc(C#N)nc2)nc2c1CSCC2	14.1	> 288000	43	119	2430	288000							
Cc1cc(/C=C/C#N)cc(C)c1Oc1nc(NC2CCN(Cc3cccc(C(N)=O)c3)CC2)nc2c1CSCC2	50.4	> 9450	184	21	443	9450							
O=C1Nc2ccc(Cl)cc2[C@@](C#CC2CC2)(C(F)(F)F)O1 [EFAVIRENZ]						> 6340					111		
Cc1cc(C#N)cc(C)c1Oc1nc(NC2CCN(Cc3cc(=O)[nH]c(=O)[nH]3)CC2)nc2c1CSCC2	13.8	> 25600	89	8	3200	25600							
Cc1cc(/C=C/C#N)cc(C)c1Oc1nc(NC2CCN(Cc3ccc([N+](=O)[O-])cc3)CC2)nc2c1CSCC2	26.2	> 59500	232	371	160	59500							
Cc1cc(/C=C/C#N)cc(C)c1Oc1nc(Nc2ccc(C#N)cn2)nc2c1CSCC2	25.8	> 246000	59	404	608	246000							
Cc1cc(C#N)cc(C)c1Oc1nc(Nc2ccc(C#N)c(F)c2)nc2c1CSCC2	13.5	> 269000	53	1030	262	269000							
Cc1cc(/C=C/C#N)cc(C)c1Oc1nc(NC2CCN(Cc3ccc(S(C)(=O)=O)cc3)CC2)nc2c1CSCC2	12.6	4810		186	116	21500	619	60.2	34.1	14.9	8.48	34.8	9.24
Cc1cc(C#N)cc(C)c1Oc1nc(NC2CCN(Cc3cccc(C(N)=O)c3)CC2)nc2c1CSCC2	15.4	> 236000	144	> 144	1640	> 236000							
